Here are results for one compound from US20240279684A1, “CYTOSOLIC DELIVERY OF GENOME EDITING TOOLS” (SAPREME TECHNOLOGIES B.V., priority 2021, published 2024).

“Also recorded” adds a separate entry of the source.

One assay concerns Neuro-2A cells. In words: Transfection efficiency of PD-nanoplexes with/without saponin, flow cytometry (GFP). Format: cell-based, murine. As to the method:
(§1) After biophysical characterisation had established that nanoplexes of the large plasmid DNA and the poly-lysine peptide were formed, cell experiments were performed: transfections. […] Without wishing to be bound by any theory, the latter effect is most likely due to insufficient complexing of DNA. […] JIMT-1-cells (DSMZ no.: ACC 589) and Neuro-2A- cells (DSMZ no.: ACC 148) were transfected with nanoplexes containing relatively large Cas9-GFP-plasmid, with and without GE1741-Co-application or SO1861-Co-application at a non-toxic concentration, when the cell which is to be transfected is considered. The transfection efficiency of all transfection conditions was measured after 48 h incubation time using flow cytometry by comparison to the negative control in terms of fluorescence intensity (for example, cells contacted with the nanoparticles in the absence of saponin). The efficiency of GE1741-based transfections and SO1861-based transfections was also compared with efficiency of Lipofectamine3000™-based transfection of the nanoparticles. Transfections were performed according to protocols commonly known and applied in the field (Clochard et al., 2020; Sama et al., 2018a; Sama et al., 2017; Sama et al., 2018b). […] Transfection efficiency of GE1741-mediated PD-transfection and SO1861-mediated PD-transfections on Neuro-2A cells and JIMT-1 cells was assessed. Cells were transfected with Cas9-GFP-DNA containing PD-nanoplexes, with and without GE1741 or SO1861 (final concentration of the saponin was 2 μg/ml). In Neuro-2A cells and JIMT-1 cells transection efficiency varied between 30% and 40%. Lipofectamin3000 served as reference. n≥3; a significant difference compared to the GE1741-free transfections or SO1861-free transfections was apparent, U-test, p≤0.05.
FIG. 4A, B. Transfection efficiency of saponin-mediated PD (Cas9-GFP)-transfections on Neuro-2A cells (FIG. 4A) and on JIMT-1-cells (FIG. 4B). Neuro-2A cells (A) and JIMT-1 cells (B) were transfected with GFP-DNA (i.e. a plasmid comprising the GFP DNA) bearing PD-nanoplexes or with Cas9-GFP-DNA bearing PD-nanoplexes, with and without the highest non-toxic saponin Co-administration (GE1741 Co-administration at 2 μg/ml or SO1861 Co-administration at 2 μg/ml). While GFP-DNA-transfections reached high efficiencies of around 70%, approximately 40% of all cells expressed GFP after Cas9-GFP-transfection. […] N≥3; *: significant difference compared to the saponin-free transfection (only nuclease), U-test.
JIMT-1-cells (human breast carcinoma) and Neuro-2A-cells (murine neuroblastoma) were transfected with nanoplexes, containing Cas9-GFP-plasmid, with and without saponin GE1741-co-application or saponin SO1861-co-application (that is to say, the saponin is added to the cell culture together with the addition of the nanoparticles comprising the nucleic acid that is to be transfected in the presence of the saponin), in a non-toxic concentration when the saponins are considered. The mass ratios for the peptide and the nucleic acid (plasmid DNA) in the nanoparticles were selected considering the dynamic light scattering (DLS) measurements and considering the aforementioned earlier assessed toxicity and earlier performed efficiency studies. The transfection efficiency of all transfection conditions was measured after 48 h incubation time via flow cytometry by comparison to the negative control in terms of fluorescence intensity (FIG. 4). […]

Another assay deals with JIMT-1 cells. The assay is described as above. As to conditions: GFP-DNA PD-nanoplexes, saponin 2 μg/ml. It counts as cell-based, human. The procedure: as §1, with “Cells were transfected with Cas9-GFP-DNA containing PD-nanoplexes, with and without GE1741 or SO1861 (final concentration of the saponin was 2 μg/ml). In Neuro-2A cells and JIMT-1 cells transection efficiency varied between 30% and 40%. Lipofectamin3000 served as reference. n≥3; a significant difference compared to the GE1741-free transfections or SO1861-free transfections was apparent, U-test, p≤0.05.” left out

For the compound `CC(=O)OC1C(C)OC(OC2C(C)OC(OC(=O)C34CCC(C)(C)CC3C3=CCC5C6(C)CCC(OC7OC(C(=O)O)C(O)C(OC8OCC(O)C(O)C8O)C7OC7OC(CO)C(O)C(O)C7O)C(C)(C=O)C6CCC5(C)C3(C)CC4O)C(OC3OC(C)C(OC4OCC(O)C(OC5OCC(O)C(O)C5O)C4O)C(O)C3O)C2O)C(O)C1OC(C)=O` (stereo not shown) [GE1741], the “transfection efficiency (cells expressing GFP)” value is listed as “around 70%” in the assay with Neuro-2A cells (GFP-DNA PD-nanoplexes, saponin 2 μg/ml, Neuro-2A) and “around 70%” in the assay with JIMT-1 cells. Further, the “transfection modulating properties compared to SO1861” value in the assay on Neuro-2A cells (large plasmid PD-nanoplexes, Neuro-2A and JIMT-1) is “slightly better transfection modulating properties; also recorded: even more improved transfection efficiency”. Moreover, the “transfection efficiency compared with Lipofectamine3000” value in the assay on Neuro-2A cells (nanoplexes of relatively large DNA plasmid and poly-lysine, saponin present) is listed as “higher than obtainable with current gold standard Lipofectamine3000™”.
